Calls of active or inactive are those of the source. The calls are words filed in the database; no cut-off is given here.
Columns and labels:
NCI-H1975 [1] = assay: Antiproliferative activity against human NCI-H1975 cells expressing EGFR T790M/L858R mutant after 72 hrs by SRB assay; assay type: functional, cell-based; settings: NCI-H1975, 72 h
[2] = system: Epidermal growth factor receptor (Homo sapiens), P00533 [L858R,T790M]; assay: Inhibition of EGFR T790M/L858R mutant in EGF-stimulated human NCI-H1975 cells assessed as decrease in phosphorylated Akt level preincubated for 2 hrs followed by EGF addition for 10 mins by western blot analysis; assay type: cell-based
Sequence of Epidermal growth factor receptor (Homo sapiens), P00533 [L858R,T790M] (P00533 whole entry T790M/L858R, looked up): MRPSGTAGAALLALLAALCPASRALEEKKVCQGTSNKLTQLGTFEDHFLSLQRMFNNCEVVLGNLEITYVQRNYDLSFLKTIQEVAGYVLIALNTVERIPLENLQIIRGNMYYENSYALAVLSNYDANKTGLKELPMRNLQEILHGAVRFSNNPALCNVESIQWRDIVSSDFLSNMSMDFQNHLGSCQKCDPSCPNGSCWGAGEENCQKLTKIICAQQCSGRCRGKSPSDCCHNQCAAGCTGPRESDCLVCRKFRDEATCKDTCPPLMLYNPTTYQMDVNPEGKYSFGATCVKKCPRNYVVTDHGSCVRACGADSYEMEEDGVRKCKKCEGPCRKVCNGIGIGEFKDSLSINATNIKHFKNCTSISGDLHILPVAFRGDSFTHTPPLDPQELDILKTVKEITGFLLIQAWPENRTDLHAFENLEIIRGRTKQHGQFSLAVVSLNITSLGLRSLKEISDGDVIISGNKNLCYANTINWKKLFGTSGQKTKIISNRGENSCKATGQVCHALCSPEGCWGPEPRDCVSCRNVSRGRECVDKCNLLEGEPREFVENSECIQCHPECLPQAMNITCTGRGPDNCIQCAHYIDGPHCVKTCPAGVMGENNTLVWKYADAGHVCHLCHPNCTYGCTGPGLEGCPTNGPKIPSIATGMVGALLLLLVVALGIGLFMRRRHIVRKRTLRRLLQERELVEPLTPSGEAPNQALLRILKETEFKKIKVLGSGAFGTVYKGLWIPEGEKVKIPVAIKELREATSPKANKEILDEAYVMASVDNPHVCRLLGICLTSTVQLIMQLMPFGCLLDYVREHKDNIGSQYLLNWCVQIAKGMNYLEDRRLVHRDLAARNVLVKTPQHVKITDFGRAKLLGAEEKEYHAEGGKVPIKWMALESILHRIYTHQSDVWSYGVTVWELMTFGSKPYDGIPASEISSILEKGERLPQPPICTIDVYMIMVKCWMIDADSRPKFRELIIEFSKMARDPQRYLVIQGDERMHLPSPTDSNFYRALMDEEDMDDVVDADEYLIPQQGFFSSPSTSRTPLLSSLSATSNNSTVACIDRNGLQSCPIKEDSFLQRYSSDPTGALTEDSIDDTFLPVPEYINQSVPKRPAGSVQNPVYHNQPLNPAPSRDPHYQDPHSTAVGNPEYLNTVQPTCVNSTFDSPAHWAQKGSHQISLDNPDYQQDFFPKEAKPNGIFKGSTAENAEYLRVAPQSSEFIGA

[3] = biological target: T1, Epidermal growth factor receptor (Homo sapiens, UniProt P00533); assay: Inhibition of wild-type EGFR in EGF-stimulated human A431 cells assessed as decrease in phosphorylated Erk level preincubated for 2 hrs followed by EGF addition for 10 mins by western blot analysis; assay type: cell-based; settings: A-431
T1 sequence (P00533 whole entry): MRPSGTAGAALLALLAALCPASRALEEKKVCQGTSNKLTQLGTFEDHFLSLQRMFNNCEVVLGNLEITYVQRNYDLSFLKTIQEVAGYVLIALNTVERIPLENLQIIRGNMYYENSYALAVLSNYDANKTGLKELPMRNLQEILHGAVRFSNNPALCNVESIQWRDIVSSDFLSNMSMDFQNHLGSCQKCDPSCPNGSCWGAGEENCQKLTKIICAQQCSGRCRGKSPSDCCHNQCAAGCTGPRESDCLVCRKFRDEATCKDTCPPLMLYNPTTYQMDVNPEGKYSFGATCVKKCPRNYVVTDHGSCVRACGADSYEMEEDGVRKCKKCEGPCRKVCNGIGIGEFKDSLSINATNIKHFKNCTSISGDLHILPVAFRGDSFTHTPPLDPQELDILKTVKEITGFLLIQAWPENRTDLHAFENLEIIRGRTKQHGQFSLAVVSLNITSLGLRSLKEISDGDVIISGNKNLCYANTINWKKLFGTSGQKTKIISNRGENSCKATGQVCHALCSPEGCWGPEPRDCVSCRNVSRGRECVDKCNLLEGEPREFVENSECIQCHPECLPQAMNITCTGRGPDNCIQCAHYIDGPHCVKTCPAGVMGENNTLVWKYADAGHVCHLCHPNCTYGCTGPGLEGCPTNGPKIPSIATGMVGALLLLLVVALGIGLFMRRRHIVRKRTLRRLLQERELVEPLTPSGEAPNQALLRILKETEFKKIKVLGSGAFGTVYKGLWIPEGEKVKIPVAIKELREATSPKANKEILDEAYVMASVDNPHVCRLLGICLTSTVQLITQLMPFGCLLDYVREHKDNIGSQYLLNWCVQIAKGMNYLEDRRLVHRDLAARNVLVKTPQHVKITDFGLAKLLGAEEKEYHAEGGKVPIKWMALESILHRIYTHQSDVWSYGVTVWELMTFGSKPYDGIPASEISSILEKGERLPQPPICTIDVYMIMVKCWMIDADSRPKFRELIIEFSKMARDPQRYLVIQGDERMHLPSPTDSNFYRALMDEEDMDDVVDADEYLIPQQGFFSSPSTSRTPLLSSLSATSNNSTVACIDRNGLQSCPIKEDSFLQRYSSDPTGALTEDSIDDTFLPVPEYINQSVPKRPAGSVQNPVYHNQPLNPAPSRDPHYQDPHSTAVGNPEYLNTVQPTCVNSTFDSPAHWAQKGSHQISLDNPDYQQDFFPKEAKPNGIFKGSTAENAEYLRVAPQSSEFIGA

[4] = biological target: T1, Epidermal growth factor receptor; assay: Inhibition of wild-type EGFR in EGF-stimulated human A431 cells assessed as decrease in phosphorylated Akt level preincubated for 2 hrs followed by EGF addition for 10 mins by western blot analysis; assay type: cell-based; settings: A-431
[5] = biological target: T1, Epidermal growth factor receptor; assay: Inhibition of wild-type EGFR phosphorylation in EGF-stimulated human A431 cells preincubated for 2 hrs followed by EGF addition for 10 mins by western blot analysis; assay type: cell-based; settings: A-431
[6] = biological target: Epidermal growth factor receptor (Homo sapiens, UniProt P00533, L858R/T790M); assay: Inhibition of EGFR T790M/L858R mutant (unknown origin) expressed in baculovirus expression system after 1 hr by ELISA
Sequence of Epidermal growth factor receptor (Homo sapiens, UniProt P00533, L858R/T790M) (P00533 25-1210 T790M/L858R limits assumed): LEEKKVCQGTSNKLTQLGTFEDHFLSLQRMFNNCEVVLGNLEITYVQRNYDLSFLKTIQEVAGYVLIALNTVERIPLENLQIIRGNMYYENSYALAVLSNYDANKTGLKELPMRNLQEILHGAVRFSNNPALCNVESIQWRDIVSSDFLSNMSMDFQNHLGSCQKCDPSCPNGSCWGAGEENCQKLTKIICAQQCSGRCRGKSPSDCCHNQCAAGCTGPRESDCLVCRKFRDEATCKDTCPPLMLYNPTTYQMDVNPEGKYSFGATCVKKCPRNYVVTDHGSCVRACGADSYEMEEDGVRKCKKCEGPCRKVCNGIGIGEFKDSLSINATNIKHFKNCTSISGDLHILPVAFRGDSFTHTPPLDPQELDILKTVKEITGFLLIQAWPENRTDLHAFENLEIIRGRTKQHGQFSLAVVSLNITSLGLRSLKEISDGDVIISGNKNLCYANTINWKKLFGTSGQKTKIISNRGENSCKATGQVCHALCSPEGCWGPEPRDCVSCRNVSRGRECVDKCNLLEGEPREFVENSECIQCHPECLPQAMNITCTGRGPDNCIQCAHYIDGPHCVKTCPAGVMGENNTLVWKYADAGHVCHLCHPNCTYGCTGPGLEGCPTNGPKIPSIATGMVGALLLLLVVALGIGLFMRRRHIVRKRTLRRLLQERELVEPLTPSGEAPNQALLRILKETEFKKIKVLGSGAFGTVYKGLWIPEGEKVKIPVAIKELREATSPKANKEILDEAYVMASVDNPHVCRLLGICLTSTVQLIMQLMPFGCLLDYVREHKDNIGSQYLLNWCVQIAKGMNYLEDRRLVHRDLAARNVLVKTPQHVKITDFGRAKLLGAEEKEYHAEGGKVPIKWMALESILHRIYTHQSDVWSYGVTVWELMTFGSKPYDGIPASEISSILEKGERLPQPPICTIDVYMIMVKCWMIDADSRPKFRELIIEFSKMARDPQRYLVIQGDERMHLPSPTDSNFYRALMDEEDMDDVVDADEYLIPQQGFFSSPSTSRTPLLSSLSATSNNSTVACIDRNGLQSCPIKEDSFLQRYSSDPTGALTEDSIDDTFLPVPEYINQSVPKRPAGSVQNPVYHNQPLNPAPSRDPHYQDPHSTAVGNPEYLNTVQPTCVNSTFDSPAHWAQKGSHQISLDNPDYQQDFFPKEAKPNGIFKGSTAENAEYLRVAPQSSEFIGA

[7] = system: Epidermal growth factor receptor (Homo sapiens), P00533 [L858R,T790M]; assay: Inhibition of EGFR T790M/L858R mutant phosphorylation in EGF-stimulated human NCI-H1975 cells preincubated for 2 hrs followed by EGF addition for 10 mins by western blot analysis; assay type: cell-based
[8] = biological target: T1, Epidermal growth factor receptor; assay: Inhibition of wild-type EGFR (unknown origin) expressed in baculovirus expression system after 1 hr by ELISA
[9] = system: Epidermal growth factor receptor (Homo sapiens), P00533 [L858R,T790M]; assay: Inhibition of EGFR T790M/L858R mutant in EGF-stimulated human NCI-H1975 cells assessed as decrease in phosphorylated Erk level preincubated for 2 hrs followed by EGF addition for 10 mins by western blot analysis; assay type: cell-based
A-431 = assay: Antiproliferative activity against human A431 cells overexpressing wild-type EGFR after 72 hrs by SRB assay; assay type: functional, cell-based; settings: A-431, 72 h
[10] = system: Epidermal growth factor receptor (Homo sapiens), P00533 [L858R,T790M]; assay: Inhibition of EGFR T790M/L858R mutant in EGF-stimulated human NCI-H1975 cells assessed as decrease in phosphorylated Akt level at 0.001 to 1 uM preincubated for 2 hrs followed by EGF addition for 10 mins by western blot analysis; assay type: cell-based
[11] = system: Epidermal growth factor receptor (Homo sapiens), P00533 [L858R,T790M]; assay: Inhibition of EGFR T790M/L858R mutant in EGF-stimulated human NCI-H1975 cells assessed as decrease in phosphorylated Erk level at 0.001 to 1 uM preincubated for 2 hrs followed by EGF addition for 10 mins by western blot analysis; assay type: cell-based
NCI-H1975 [12] = assay: Effect on total EGFR level in human NCI-H1975 cells at 0.001 to 1 uM preincubated for 2 hrs followed by EGF addition for 10 mins by western blot analysis; assay type: ADME, cell-based; settings: nci-h1975, 10 min
NCI-H1975 [13] = assay: Effect on total Akt level in human NCI-H1975 cells at 0.001 to 1 uM preincubated for 2 hrs followed by EGF addition for 10 mins by western blot analysis; assay type: ADME, cell-based; settings: nci-h1975, 10 min
NCI-H1975 [14] = assay: Effect on total Erk level in human NCI-H1975 cells at 0.001 to 1 uM preincubated for 2 hrs followed by EGF addition for 10 mins by western blot analysis; assay type: ADME, cell-based; settings: nci-h1975, 10 min
NCI-H1975 [15] = assay: Effect on total tubulin level in human NCI-H1975 cells at 0.001 to 1 uM preincubated for 2 hrs followed by EGF addition for 10 mins by western blot analysis; assay type: ADME, cell-based; settings: nci-h1975, 10 min

Row | SMILES | IC50 (NCI-H1975 [1]) [nM] | inhibition [2] | inhibition [3] | inhibition [4] | inhibition [5] | IC50 [6] [nM] | inhibition [7] | IC50 [8] [nM] | inhibition [9] | IC50 (A-431) [nM] | inhibition [10] | inhibition [11] | Activity (NCI-H1975 [12]) | Activity (NCI-H1975 [13]) | Activity (NCI-H1975 [14]) | Activity (NCI-H1975 [15])
1 | C=CC(=O)Nc1cccc(Oc2nc(Nc3ccc(N4CCN(C)CC4)cc3OC)ncc2Cl)c1 | 95 |  |  |  |  |  |  |  |  |  |  |  |  |  |  | 
2 | C=CC(=O)Nc1cccc(Oc2nc(Nc3ccc(N4CCN(C(C)=O)CC4)cc3OC(F)F)ncc2SC)c1 | 20 | Dose-dependent effect | Dose-dependent effect | Dose-dependent effect | Dose-dependent effect | 2.8 | Dose-dependent effect | 38.8 | Dose-dependent effect | 4650 |  |  |  |  |  | 
3 | C=CC(=O)Nc1cccc(Oc2nc(Nc3ccc(N4CCN(C(C)=O)CC4)cc3OC)ncc2SC)c1 | 194 |  |  |  |  | 0.7 |  | 87.5 |  | 4580 |  |  |  |  |  | 
5 | C=CC(=O)Nc1cccc(Oc2nc(Nc3ccc(N4CCN(C(=O)C(C)(C)C)CC4)cc3OC)ncc2SC)c1 | 577 |  |  |  |  | 9.6 |  | 410 |  | 9220 |  |  |  |  |  | 
6 | C=CC(=O)Nc1cccc(Oc2nc(Nc3ccc(N4CCN(S(C)(=O)=O)CC4)cc3OC)ncc2SC)c1 | 1690 |  |  |  |  | 7.3 |  | 730 |  | > 10000 |  |  |  |  |  | 
7 | C=CC(=O)Nc1cccc(Oc2nc(Nc3ccc(N4CCN(C(C)=O)CC4)cc3OC)ncc2C(F)(F)F)c1 | 88 |  |  |  |  |  | Dose-dependent effect |  |  | 1880 | Active | Active |  |  |  | 
8 | C=CC(=O)Nc1cccc(Oc2nc(Nc3ccc(N4CCCN(C(C)=O)CC4)cc3OC)ncc2SC)c1 | 573 |  |  |  |  | 1.8 |  | 389 |  | 4300 |  |  |  |  |  | 
9 | C=CC(=O)Nc1cccc(Oc2nc(Nc3ccc(N4CCN(C(=O)CC)CC4)cc3OC)ncc2SC)c1 | 148 | Dose-dependent effect | Dose-dependent effect | Dose-dependent effect | Dose-dependent effect | 5.8 | Dose-dependent effect | 154 | Dose-dependent effect | 4420 |  |  |  |  |  | 
10 | C=CC(=O)Nc1cccc(Oc2nc(Nc3ccc(N4CCN(C(=O)C(F)(F)F)CC4)cc3OC)ncc2SC)c1 | 404 |  |  |  |  | 4.4 |  | 248 |  | 1190 |  |  |  |  |  | 
11 | C=CC(=O)Nc1cccc(Oc2nc(Nc3ccc(N4CCN(C(=O)C(C)C)CC4)cc3OC)ncc2SC)c1 | 200 |  |  |  |  | 3.6 |  | 174 |  | 2010 |  |  |  |  |  | 
12 | C=CC(=O)Nc1cccc(Oc2nc(Nc3ccc(N4CCN(C)CC4)cc3OC)ncc2SC)c1 | 167 |  |  |  |  | 0.4 | Dose-dependent effect | 272 |  | 3880 | Active | Active | Non-toxic | Non-toxic | Non-toxic | Non-toxic
13 | C=CC(=O)Nc1cccc(Oc2nc(Nc3ccc(N4CCN(C(=O)CC)CC4)cc3OC(F)F)ncc2SC)c1 | 88 | Dose-dependent effect | Dose-dependent effect | Dose-dependent effect | Dose-dependent effect | 3.7 | Dose-dependent effect | 46.4 | Dose-dependent effect | 4920 |  |  |  |  |  | 

— ChEMBL document CHEMBL3797107, “Discovery of 5-(methylthio)pyrimidine derivatives as L858R/T790M mutant selective epidermal growth factor receptor (EGFR) inhibitors” (Bioorg Med Chem, 2016)
